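Where inhibition never reached the appropriate level, the endpoint shown equals the highest concentration tested. Otherwise, values were interpolated linearly from a five-concentration, 48-hour dose response in 96-well plates. GI50 is the concentration that inhibits growth by half.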 The source made the active and inactive calls. No stated cut-off is given here; in the data, active = GI50 up to about 1.1 µM and inactive = higher. Starred links: 1 amine or outer side, 2 acyl side, 3 side chain; linkers in the order of their positions; H or OH if unused. Positions of bridges follow the written chain, without caps; N, C: chain ends. Non-standard residues stand in square brackets, D forms with d. Residues, ends and D or L forms follow the SMILES beside them. Chains are numbered I, II in the order given. Actinocin(1to9) = Cc1c2oc3c(C)ccc(C(=O)[*:2])c3nc-2c(C(=O)[*:1])c(N)c1=O; aThr = C[C@H](O)[C@H](N)C(=O)O; NMeV = CN[C@H](C(=O)O)C(C)C; Sar = CNCC(=O)O
Columns and labels:
Assay in all cases: NCI-60 cell line screen, 48 h
[1] = system: A549
[2] = system: CCRF-CEM
[3] = system: DMS-114
[4] = system: HL-60
[5] = system: HOP-62
[6] = system: HT-29
[7] = system: K562
[8] = system: LOX IMVI
[9] = system: NCI-H226
[10] = system: NCI/ADR-RES
[11] = system: OVCAR-5
[12] = system: SK-MEL-2
[13] = system: SK-OV-3
[14] = system: SW-620
[15] = system: UACC-62
[16] = system: ACHN
[17] = system: DU-145
[18] = system: Hs-578T
[19] = system: M14
[20] = system: MDA-MB-435

Structure (SMILES)	GI50 [1]	GI50 [2]	GI50 [3]	GI50 [4]	GI50 [5]	GI50 [6]	GI50 [7]	GI50 [8]	GI50 [9]	GI50 [10]	GI50 [11]	GI50 [12]	GI50 [13]	GI50 [14]	GI50 [15]	GI50 [16]	GI50 [17]	GI50 [18]	GI50 [19]	GI50 [20]
Oc1cc(O)cc(/C=C/c2ccc(O)c(O)c2)c1 [PICEATANNOL]	18.8 µM (inactive)	4.32 µM (inactive)	5.66 µM (inactive)	2.74 µM (inactive)	16.3 µM (inactive)	23.2 µM (inactive)	4.49 µM (inactive)	11.9 µM (inactive)	19.5 µM (inactive)	16.6 µM (inactive)	5.06 µM (inactive)	3.87 µM (inactive)	18.9 µM (inactive)	13 µM (inactive)	3.53 µM (inactive)	–	–	–	–	–
Cc1c2oc3c(C)ccc(C(=O)N[C@@H]4C(=O)N[C@H](C(C)C)C(=O)N5CCC[C@H]5C(=O)N(C)CC(=O)N(C)[C@@H](C(C)C)C(=O)O[C@H]4C)c3nc-2c(C(=O)N[C@@H]2C(=O)N[C@H](C(C)C)C(=O)N3CCC[C@H]3C(=O)N(C)CC(=O)N(C)[C@@H](C(C)C)C(=O)O[C@H]2C)c(N)c1=O (I: [aThr][dV]P[Sar][NMeV] / II: [aThr][dV]P[Sar][NMeV]; ester I:1-I:C, II:1-II:C; linker I:N-II:N via Actinocin(1to9))	0.00206 µM (active)	0.000863 µM (active)	0.00295 µM (active)	0.00231 µM (active)	0.00217 µM (active)	0.000759 µM (active)	0.000492 µM (active)	0.000518 µM (active)	0.00195 µM (active)	0.098 µM (active)	0.00611 µM (active)	0.00106 µM (active)	0.00869 µM (active)	0.000489 µM (active)	0.000935 µM (active)	0.00371 µM (active)	0.00393 µM (active)	0.00187 µM (active)	0.00528 µM (active)	0.000871 µM (active)
COc1ccc(-c2nc(N)n(C)c2SSc2c(-c3ccc(OC)cc3)nc(N)n2C)cc1	17.5 µM (inactive)	2.76 µM (inactive)	2.26 µM (inactive)	2.59 µM (inactive)	17.5 µM (inactive)	9.59 µM (inactive)	2.83 µM (inactive)	2.03 µM (inactive)	17.4 µM (inactive)	14.2 µM (inactive)	6.85 µM (inactive)	15.6 µM (inactive)	18.6 µM (inactive)	2.23 µM (inactive)	3.81 µM (inactive)	3.94 µM (inactive)	17.3 µM (inactive)	9.16 µM (inactive)	2.19 µM (inactive)	3.92 µM (inactive)
O=C1C=C2SC3C[C@@]24CC1[N+]1=c2c4c(c(O)c4c2=C(C=N4)CC1)N3	6.17 µM (inactive)	2 µM (inactive)	1.39 µM (inactive)	1.46 µM (inactive)	17.8 µM (inactive)	–	2.44 µM (inactive)	2.51 µM (inactive)	2.29 µM (inactive)	6.68 µM (inactive)	2.17 µM (inactive)	1.82 µM (inactive)	2.96 µM (inactive)	2.62 µM (inactive)	1.78 µM (inactive)	–	–	–	–	–
COc1cc2c(cc1OC)C(C(c1ccccc1)c1ccccc1)N(C)CC2 (stereo unspecified)	> 100 µM (inactive)	64.7 µM (inactive)	41.8 µM (inactive)	40.6 µM (inactive)	> 100 µM (inactive)	35.1 µM (inactive)	40.8 µM (inactive)	> 81.1 µM (inactive)	> 92.9 µM (inactive)	68.9 µM (inactive)	> 100 µM (inactive)	> 85.9 µM (inactive)	79.3 µM (inactive)	> 100 µM (inactive)	> 86.7 µM (inactive)	–	–	–	–	–
CCOC(=O)c1nc2ccc([N+](=O)[O-])cc2c2c1CCO2	> 100 µM (inactive)	> 100 µM (inactive)	> 100 µM (inactive)	> 100 µM (inactive)	> 100 µM (inactive)	> 100 µM (inactive)	> 100 µM (inactive)	> 100 µM (inactive)	> 100 µM (inactive)	–	> 100 µM (inactive)	> 100 µM (inactive)	> 100 µM (inactive)	> 100 µM (inactive)	> 100 µM (inactive)	> 100 µM (inactive)	–	–	> 100 µM (inactive)	–
Clc1ccc(-c2c(C3=NCCCN3)nnn2-c2ccc(Cl)cc2)cc1	> 76 µM (inactive)	31.8 µM (inactive)	21.7 µM (inactive)	17.5 µM (inactive)	55.5 µM (inactive)	21.3 µM (inactive)	20.9 µM (inactive)	21.1 µM (inactive)	60.3 µM (inactive)	> 50.6 µM (inactive)	35.3 µM (inactive)	17.4 µM (inactive)	> 76.6 µM (inactive)	49.8 µM (inactive)	18.5 µM (inactive)	> 78.2 µM (inactive)	> 91.2 µM (inactive)	26.9 µM (inactive)	16.7 µM (inactive)	19.2 µM (inactive)
NNC(=O)/C(NC(=O)c1ccccc1)=C(\N)c1ccc(Cl)cc1	> 100 µM (inactive)	38.2 µM (inactive)	> 100 µM (inactive)	> 100 µM (inactive)	> 100 µM (inactive)	> 100 µM (inactive)	89.3 µM (inactive)	> 100 µM (inactive)	> 100 µM (inactive)	–	> 100 µM (inactive)	> 100 µM (inactive)	> 100 µM (inactive)	> 100 µM (inactive)	> 100 µM (inactive)	> 100 µM (inactive)	–	–	> 100 µM (inactive)	–
O=C(O)CCC(NC(=O)c1ccc(Nc2nc3cc(C(F)(F)F)ccc3nc2-c2ccccc2)cc1)C(=O)O (stereo unspecified)	> 86.1 µM (inactive)	97.3 µM (inactive)	> 100 µM (inactive)	84.3 µM (inactive)	> 74.6 µM (inactive)	18.8 µM (inactive)	34.4 µM (inactive)	44.9 µM (inactive)	> 100 µM (inactive)	62.1 µM (inactive)	63.5 µM (inactive)	> 100 µM (inactive)	> 100 µM (inactive)	68.1 µM (inactive)	> 60.1 µM (inactive)	–	–	–	–	–

Reference: ChEMBL document CHEMBL1201862, “PubChem BioAssay data set” (2004)
